Experimental data taken from PMC5824344 (ACS Chemical Biology, 2017).

Tests used:
Rat intestinal sucrase = target: T1, Rat intestinal sucrase (Rattus norvegicus, UniProt P23739); assay: Inhibition of rat intestinal sucrase (natural substrate, glucose release); format: biochemical; conditions: for IC50: isolated enzyme in vitro, mean of three measurements, read-out: IC50, α-Glucosidase, Rat intestinal sucrase
T1 construct: from tissue; host or cells: intestine of male Wistar rats, partially purified extract
T1 sequence (P23739 whole entry): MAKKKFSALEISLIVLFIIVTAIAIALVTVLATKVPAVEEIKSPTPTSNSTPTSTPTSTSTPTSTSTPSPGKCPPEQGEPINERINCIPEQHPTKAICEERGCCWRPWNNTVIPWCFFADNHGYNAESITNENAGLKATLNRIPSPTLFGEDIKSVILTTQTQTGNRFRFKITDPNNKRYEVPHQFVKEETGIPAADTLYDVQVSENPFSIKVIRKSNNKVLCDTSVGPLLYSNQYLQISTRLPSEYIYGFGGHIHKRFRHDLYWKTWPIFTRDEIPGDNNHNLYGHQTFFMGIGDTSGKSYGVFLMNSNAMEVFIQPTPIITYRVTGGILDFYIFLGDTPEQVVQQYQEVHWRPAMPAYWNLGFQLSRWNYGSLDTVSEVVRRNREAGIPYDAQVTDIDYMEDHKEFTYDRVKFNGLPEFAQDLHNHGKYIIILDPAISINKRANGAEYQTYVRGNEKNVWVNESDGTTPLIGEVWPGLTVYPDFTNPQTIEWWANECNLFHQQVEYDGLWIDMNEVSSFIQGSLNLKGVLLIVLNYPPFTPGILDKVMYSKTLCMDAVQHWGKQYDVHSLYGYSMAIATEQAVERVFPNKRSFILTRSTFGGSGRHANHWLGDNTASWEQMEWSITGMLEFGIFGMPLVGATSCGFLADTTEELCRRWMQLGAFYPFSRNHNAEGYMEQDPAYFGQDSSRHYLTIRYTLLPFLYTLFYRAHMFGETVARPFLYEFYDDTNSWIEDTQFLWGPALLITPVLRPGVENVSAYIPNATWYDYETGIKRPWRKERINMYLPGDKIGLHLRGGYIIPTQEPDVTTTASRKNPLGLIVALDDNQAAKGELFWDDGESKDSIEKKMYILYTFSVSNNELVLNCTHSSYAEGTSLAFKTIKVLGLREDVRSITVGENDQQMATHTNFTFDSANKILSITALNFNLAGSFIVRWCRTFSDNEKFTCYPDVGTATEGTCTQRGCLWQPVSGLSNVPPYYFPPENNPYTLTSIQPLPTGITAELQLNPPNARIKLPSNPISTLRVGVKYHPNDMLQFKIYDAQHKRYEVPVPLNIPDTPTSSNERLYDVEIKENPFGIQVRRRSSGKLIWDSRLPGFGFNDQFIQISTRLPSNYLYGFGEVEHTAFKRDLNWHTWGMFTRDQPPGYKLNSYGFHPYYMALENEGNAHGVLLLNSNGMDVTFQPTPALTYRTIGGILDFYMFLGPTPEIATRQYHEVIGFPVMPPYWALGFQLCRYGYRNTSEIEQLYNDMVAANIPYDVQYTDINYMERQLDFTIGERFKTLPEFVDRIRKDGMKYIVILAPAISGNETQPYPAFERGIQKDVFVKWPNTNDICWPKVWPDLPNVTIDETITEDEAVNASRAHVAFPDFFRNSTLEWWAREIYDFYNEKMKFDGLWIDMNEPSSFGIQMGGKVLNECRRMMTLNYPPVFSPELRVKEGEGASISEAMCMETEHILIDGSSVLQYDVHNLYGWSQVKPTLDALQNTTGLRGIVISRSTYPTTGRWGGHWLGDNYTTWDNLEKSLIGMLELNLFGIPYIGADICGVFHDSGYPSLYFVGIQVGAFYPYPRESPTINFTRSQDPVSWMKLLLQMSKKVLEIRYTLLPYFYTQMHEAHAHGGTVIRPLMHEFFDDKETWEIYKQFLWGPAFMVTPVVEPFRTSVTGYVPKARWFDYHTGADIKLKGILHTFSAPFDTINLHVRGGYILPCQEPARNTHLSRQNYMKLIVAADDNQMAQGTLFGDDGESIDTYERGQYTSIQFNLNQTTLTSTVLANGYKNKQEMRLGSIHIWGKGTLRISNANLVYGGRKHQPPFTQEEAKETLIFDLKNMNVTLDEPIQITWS

[1] = tested on: GluI and GluII in human hepatoma Huh7.5 cells; assay: Free oligosaccharide (FOS) assay in Huh7.5 cells; format: cell-based; conditions: naive Huh7.5 cells, 48 h, 50 µm
Experimental: (§1) 5 Cell and Virus Culture and Assays
(§2) 5.1 Culture of Cell Lines
The human hepatoma cell line Huh7.5 (Apath, LLC) was cultured in Dulbecco’s modiﬁed Eagle medium (DMEM) with Glutamax (Gibco) supplemented with 100 µg mL−1 strepto-mycin (Sigma), 100 U mL−1 penicillin (Sigma), 100 µm MEM non-essential amino acids (Gibco) and 10% (volume/volume, v/v) heat-inactivated (56 ◦C, 30 min) fetal calf serum (FCS, Seralab). The human monocytic cell line HL60 (ATCC), human T lymphocyte cell line Jurkat (ATCC), and human B lymphocyte cell line Raji (ATCC) were each maintained in RPMI 1640 media with Glutamax (Gibco) supplemented with 100 µg mL−1 streptomycin, 100 U mL−1 penicillin and 10% (v/v) FCS. The monkey kidney cell line LLC-MK2 (a gift from Armed Forces Research Institute of Medical Sciences, Thailand) was cultured in M199 media (Gibco) supplemented with 2 mm l-glutamine, 100 µg mL−1 streptomycin, 100 U mL−1 penicillin and 20% (v/v) FCS. Subsequently, these are referred to as growth media for each cell line. Unless otherwise indicated, all cell incubations were carried out at 37 ◦C and 5% CO2. […]
(§3) Cell viability was measured using the CellTiter 96 R© AQueous One Solution Cell Prolifera-tion MTA (3-(4,5-dimethylthiazol-2-yl)-5-(3-carboxymethoxyphenyl)-2-(4-sulfophenyl)-2H - […]
(§4) After a further one to two hour incubation, the absorbance at 490 nm was measured on a Molecular Devices SpectraMax M5 microplate reader. […]
(§5) Absorbances were averaged across replicates, and corrected for background by subtracting the value for media-only wells. Each drug treatment was then evaluated as a percentage of untreated cells. […]
(§6) FOS analysis was carried out as described previously. […] Before purifying the FOS, each sample was analyzed for protein content using the modiﬁed Bradford assay. […] The labelled glycans were then analyzed by normal phase high performance liquid chromatography. Retention times and peak area were used to identify and quantify glycans, respectively, by comparison to standards of known identity and molar quantity. FOS quantities were normalized to protein levels.

[2] = tested on: GluI and GluII in HL60 (promyelocytic) cells; assay: Free oligosaccharide (FOS) assay in HL60 cells; format: cell-based, human; conditions: 48 h
Experimental: as §1, §2
The human hepatoma cell line Huh7.5 (Apath, LLC) was cultured in Dulbecco’s modiﬁed Eagle medium (DMEM) with Glutamax (Gibco) supplemented with 100 µg mL−1 strepto-mycin (Sigma), 100 U mL−1 penicillin (Sigma), 100 µm MEM non-essential amino acids (Gibco) and 10% (volume/volume, v/v) heat-inactivated (56 ◦C, 30 min) fetal calf serum (FCS, Seralab). The human monocytic cell line HL60 (ATCC), human T lymphocyte cell line Jurkat (ATCC), and human B lymphocyte cell line Raji (ATCC) were each maintained in RPMI 1640 media with Glutamax (Gibco) supplemented with 100 µg mL−1 streptomycin, 100 U mL−1 penicillin and 10% (v/v) FCS. The monkey kidney cell line LLC-MK2 (a gift from Armed Forces Research Institute of Medical Sciences, Thailand) was cultured in M199 media (Gibco) supplemented with 2 mm l-glutamine, 100 µg mL−1 streptomycin, 100 U mL−1 penicillin and 20% (v/v) FCS. Subsequently, these are referred to as growth media for each cell line. Unless otherwise indicated, all cell incubations were carried out at 37 ◦C and 5% CO2. All cells were maintained as mycoplasma free, with regular veriﬁcations by polymerase chain reaction (PCR).
5.2 Isolation and Culture of Primary Human MDMΦ
Primary human MDMΦ were generated from human monocytes isolated from buﬀy coats (NHS Blood and Transplant, surplus to clinical requirements) as described previously 5 and cultured in X-VIVO10 medium (Lonza) supplemented with 1% (v/v) heat-inactivated (56◦C, 30 min) autologous plasma. The use of human blood was approved by the NHS National Research Ethics Service (09/H0606/3).
as §3
tetrazolium, inner salt) Assay (Promega) according to the manufacturer’s instruction. Brieﬂy, cells were treated in triplicate either for 4 d (Huh7.5) or 2 d (all other cell types). […]
as §4, §5, §6

[3] = tested on: GluI and GluII in primary human monocyte-derived macrophages (MDMΦ); assay: Free oligosaccharide (FOS) assay in primary monocyte-derived macrophages; format: cell-based; conditions: naive MDMΦ
Experimental: as §1, §2
The human hepatoma cell line Huh7.5 (Apath, LLC) was cultured in Dulbecco’s modiﬁed Eagle medium (DMEM) with Glutamax (Gibco) supplemented with 100 µg mL−1 strepto-mycin (Sigma), 100 U mL−1 penicillin (Sigma), 100 µm MEM non-essential amino acids (Gibco) and 10% (volume/volume, v/v) heat-inactivated (56 ◦C, 30 min) fetal calf serum (FCS, Seralab). The human monocytic cell line HL60 (ATCC), human T lymphocyte cell line Jurkat (ATCC), and human B lymphocyte cell line Raji (ATCC) were each maintained in RPMI 1640 media with Glutamax (Gibco) supplemented with 100 µg mL−1 streptomycin, 100 U mL−1 penicillin and 10% (v/v) FCS. […]
as §3, §4, §5
FOS analysis was carried out as described previously. […] Before purifying the FOS, each sample was analyzed for protein content using the modiﬁed Bradford assay. […]

[4] = target: T2, human lysosomal α-glucosidase (Homo sapiens, UniProt P10253); assay: Inhibition of human lysosomal α-glucosidase (α-p-nitrophenylglucoside substrate); format: biochemical; conditions: for IC50: isolated enzyme in vitro, mean of three measurements, read-out: IC50, α-Glucosidase, Human lysosome
T2 construct: purchased Sanofi Genzyme

[5] = target: T3, Rat intestinal isomaltase (Rattus norvegicus, UniProt P23739); assay: Inhibition of rat intestinal isomaltase (natural substrate, glucose release); format: biochemical; conditions: for IC50: isolated enzyme in vitro, mean of three measurements, read-out: IC50, α-Glucosidase, Rat intestinal isomaltase
T3 construct: from tissue; host or cells: intestine of male Wistar rats, partially purified extract
T3 sequence (P23739 whole entry): as above
Experimental: 4 Enzyme Inhibition Assays
All rat enzymes were isolated from 18-week-old, male Wistar rats, while human lysosomal α-glucosidase was obtained in commercially available form from Sanoﬁ Genzyme. Inhibition of isolated glucosidases was evaluated as described previously. 3 Brieﬂy, maltase, isomaltase, sucrase, and cellobiase were used as partially puriﬁed tissue extracts. Inhibition assays for each enzyme were performed with the respective natural substrate, and release of d-glucose measured by Glucose B-test (Wako Diagnostics). Assays of rat ER α-glucosidase II and human lysosomal α-glucosidase inhibition were conducted with α-p-nitrophenylglucoside as substrate; 400 mm Na2CO3 was added to quench these reactions, and the extent of hydrolysis was evaluated as absorbance at 400 nm by spectrophotometer.
ER α-glucosidase I inhibition assays were performed using anthranilic acid-labelled Glc3Man7GlcNAc2 as substrate. After terminating the reaction with acetonitrile, protein was removed by cen-trifugation through a 10 kDa molecular weight cut oﬀ ﬁlter. The amount of hydrolysis was then quantiﬁed by normal phase high performance liquid chromatography analysis of unreacted substrate and product (Glc2Man7GlcNAc2).4
ER α-glucosidase II inhibition assays using native-like substrates were performed using an-thranilic acid-labelled Glc2Man7GlcNAc2 as substrate. After terminating the reaction with acetonitrile, protein was removed by centrifugation through a 10 kDa molecular weight cut oﬀ ﬁlter. The amount of hydrolysis was then quantiﬁed by normal phase high performance liq-uid chromatography analysis of unreacted substrate and both products (Glc1Man7GlcNAc2

What does the source list for `Cc1c(C)c2c(c(C)c1OCCCCCN1CC(O)C(O)C(O)C1CO)CCC(C)(CCCC(C)CCCC(C)CCCC(C)C)O2` (stereo not drawn) [Compound 4, 5′-tocopheroxypentyl-DNJ]?
inhibition at 50 µM (Rat intestinal sucrase; 50 μM, read-out: inhibition of intestinal sucrase at the maximum tested concentration): < 50%; IC50 (Rat intestinal sucrase): > 50 µM; glucosylated free oligosaccharides (FOS) observed after treatment [1]: no glucosylated FOS were observed; glucosylated free oligosaccharides (FOS) observed after treatment ([1]; listed as ToP-DNJ 4): no glucosylated FOS were detected; glucosylated free oligosaccharides (FOS) observed after treatment ([2]; 10 µm): did not; glucosylated free oligosaccharides (FOS) observed after treatment ([2]; 50 µm): detected; glucosylated free oligosaccharides (FOS) observed after treatment ([2]; 50 µm, listed as ToP-DNJ 4): production of monoglucosylated FOS; glucosylated free oligosaccharides (FOS) observed after treatment [3]: Only monoglucosylated FOS accumulated; inhibition at 50 µM ([4]; 50 μM, read-out: inhibition of lysosomal glucosidase at the maximum tested concentration): < 50%; IC50 [4]: > 50 µM; inhibition at 50 µM ([5]; 50 μM, read-out: inhibition of intestinal isomaltase at the maximum tested concentration): < 50%; IC50 [5]: > 50 µM

Which IC50 (Rat intestinal sucrase) does the source give for `CCCCN1CC(O)C(O)C(O)C1CO` [Compound 2, N-butyl-D-1-deoxynojirimycin, reference compound] here?
The IC50 was 0.43 µM.

What about the “glucosylated free oligosaccharides (FOS) observed after treatment” value (“glucosylated free oligosaccharides” for short) [1] of the same molecule?
Its value is “inhibits both enzymes”.

And the “glucosylated free oligosaccharides” value ([2]; 10 µm)?
The value was “produced glucosylated FOS”.

What about the “glucosylated free oligosaccharides” value [3] of the same molecule?
The value was “mono- and triglucosylated FOS were observed”.

And the IC50 [4]?
Its IC50 is 2.1 µM.

And the IC50 [5]?
Its IC50 is 1.6 µM.
